In ChEMBL document CHEMBL3988442, “University of Dundee, Small-Polar-MMV Screening Library” (2021):
Several values for one entry are separate records, joined by “and”; a condition that tells them apart may be missing. Equal entries are not always repeated.

Key:
[1] = target: Polyketide synthase Pks13 (Mycobacterium tuberculosis (strain ATCC 25618 / H37Rv), UniProt I6X8D2); assay: Mycobacterium tuberculosis Polyketide synthase 13 Thioesterase (PKS13); format: functional
[2] = microbe, parasite or virus in culture; details: Mycobacterium tuberculosis, 96 h, read-out: pIC50 (converted)
[3] = microbe, parasite or virus in culture; details: Mycobacterium tuberculosis, 72 h, read-out: pIC50 (converted)
ClpP1P2 = ClpP1P2 (Mycobacterium tuberculosis (strain ATCC 25618 / H37Rv), UniProt P9WPC3+P9WPC5); assay: in vitro assay to detect presence of AMC directly proportional to the activity of ClpP1P2. GHDDI collaboration.; format: functional
[4] = In vitro enzyme assay to detect hydrolysis of chlorophenol red-beta-D-[…] directly proportional to the number of Toxoplasma stably expressing beta-galactosidase; format: functional, organism-based, Toxoplasma gondii; details: for IC50: Toxoplasma gondii
Plasmodium falciparum = assay: Calibr Malaria Delayed Death Assay SOP; format: functional, organism-based
Tryptophan--tRNA ligase = Tryptophan--tRNA ligase (Mycobacterium tuberculosis (strain ATCC 25618 / H37Rv), UniProt P9WFT3); assay: Biochemical assay for Mt-TrpRS; format: functional
Leishmania donovani = assay: Leishmania intramacrophage assay; format: functional, organism-based; details: Leishmania donovani

Chain of ClpP1P2 (P9WPC5 whole entry): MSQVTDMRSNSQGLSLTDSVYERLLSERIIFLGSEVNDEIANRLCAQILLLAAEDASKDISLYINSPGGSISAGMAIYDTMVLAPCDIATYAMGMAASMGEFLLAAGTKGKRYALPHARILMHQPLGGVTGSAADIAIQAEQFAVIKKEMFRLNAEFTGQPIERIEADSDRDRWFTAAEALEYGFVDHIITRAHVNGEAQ
Chain of ClpP1P2 (P9WPC3 whole entry): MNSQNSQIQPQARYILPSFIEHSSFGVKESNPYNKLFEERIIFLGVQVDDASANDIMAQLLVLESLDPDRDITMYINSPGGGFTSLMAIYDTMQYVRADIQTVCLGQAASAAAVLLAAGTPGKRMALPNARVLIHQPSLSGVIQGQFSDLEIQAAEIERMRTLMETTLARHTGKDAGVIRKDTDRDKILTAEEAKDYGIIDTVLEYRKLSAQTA
Chain of Polyketide synthase Pks13 (I6X8D2 whole entry): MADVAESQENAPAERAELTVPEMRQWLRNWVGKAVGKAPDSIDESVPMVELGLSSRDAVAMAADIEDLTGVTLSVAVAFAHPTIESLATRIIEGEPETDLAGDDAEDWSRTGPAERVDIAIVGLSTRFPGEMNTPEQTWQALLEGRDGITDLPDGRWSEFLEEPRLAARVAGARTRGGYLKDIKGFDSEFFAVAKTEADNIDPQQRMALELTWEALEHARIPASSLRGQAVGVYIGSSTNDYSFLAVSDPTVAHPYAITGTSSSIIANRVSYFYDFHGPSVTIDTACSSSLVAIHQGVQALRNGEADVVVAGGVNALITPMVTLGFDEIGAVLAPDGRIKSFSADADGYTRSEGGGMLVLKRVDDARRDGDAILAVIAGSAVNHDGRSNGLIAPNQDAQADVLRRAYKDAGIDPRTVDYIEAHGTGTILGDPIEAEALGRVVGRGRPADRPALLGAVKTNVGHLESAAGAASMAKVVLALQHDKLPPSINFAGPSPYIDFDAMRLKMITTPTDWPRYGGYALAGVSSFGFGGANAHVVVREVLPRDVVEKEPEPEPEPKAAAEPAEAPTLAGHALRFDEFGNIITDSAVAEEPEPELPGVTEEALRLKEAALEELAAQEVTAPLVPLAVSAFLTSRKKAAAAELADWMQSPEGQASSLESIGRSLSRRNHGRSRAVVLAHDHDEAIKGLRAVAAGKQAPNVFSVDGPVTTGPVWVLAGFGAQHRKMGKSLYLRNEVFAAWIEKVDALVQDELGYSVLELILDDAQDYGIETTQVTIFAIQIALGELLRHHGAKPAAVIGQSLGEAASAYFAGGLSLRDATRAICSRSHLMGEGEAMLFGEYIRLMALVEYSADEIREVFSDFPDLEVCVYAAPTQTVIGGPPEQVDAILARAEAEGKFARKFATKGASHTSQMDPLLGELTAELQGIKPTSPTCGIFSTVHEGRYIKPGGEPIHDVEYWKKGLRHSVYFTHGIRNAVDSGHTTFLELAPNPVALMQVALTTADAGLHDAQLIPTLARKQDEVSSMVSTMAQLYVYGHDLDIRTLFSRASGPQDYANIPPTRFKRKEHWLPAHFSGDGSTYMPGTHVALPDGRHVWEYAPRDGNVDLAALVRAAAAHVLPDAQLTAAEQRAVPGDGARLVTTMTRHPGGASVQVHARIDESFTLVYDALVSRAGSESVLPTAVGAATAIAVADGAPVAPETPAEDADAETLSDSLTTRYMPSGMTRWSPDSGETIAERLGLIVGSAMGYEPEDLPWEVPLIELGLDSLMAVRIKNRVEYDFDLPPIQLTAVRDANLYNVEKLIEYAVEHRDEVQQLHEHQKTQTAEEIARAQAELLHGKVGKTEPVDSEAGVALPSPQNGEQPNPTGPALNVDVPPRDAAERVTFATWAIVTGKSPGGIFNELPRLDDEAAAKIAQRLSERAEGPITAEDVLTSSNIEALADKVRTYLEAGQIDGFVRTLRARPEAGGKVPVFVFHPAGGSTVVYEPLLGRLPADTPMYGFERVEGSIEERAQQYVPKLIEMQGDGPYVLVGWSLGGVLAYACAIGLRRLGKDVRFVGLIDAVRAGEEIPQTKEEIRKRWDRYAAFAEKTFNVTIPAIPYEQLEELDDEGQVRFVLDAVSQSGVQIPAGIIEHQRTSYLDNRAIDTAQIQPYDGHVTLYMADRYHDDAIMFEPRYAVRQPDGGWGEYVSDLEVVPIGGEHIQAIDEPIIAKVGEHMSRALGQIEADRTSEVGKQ
Chain of Tryptophan--tRNA ligase (P9WFT3 whole entry): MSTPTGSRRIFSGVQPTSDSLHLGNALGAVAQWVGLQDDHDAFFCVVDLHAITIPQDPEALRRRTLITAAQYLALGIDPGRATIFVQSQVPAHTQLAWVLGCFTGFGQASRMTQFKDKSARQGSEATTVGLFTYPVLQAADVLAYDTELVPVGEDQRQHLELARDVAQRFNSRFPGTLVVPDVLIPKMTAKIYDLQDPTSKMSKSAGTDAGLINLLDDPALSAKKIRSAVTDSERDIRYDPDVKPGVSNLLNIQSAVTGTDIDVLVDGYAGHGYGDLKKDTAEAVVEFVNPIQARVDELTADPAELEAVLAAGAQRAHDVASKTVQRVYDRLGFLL

Compound: COc1ccc(CC(C)Nc2cccc(SC)c2)cc1 (stereo not drawn)
- IC50 [1]: 24.5 µM and 22 µM
- IC50 [2]: 45.4 µM
- IC50 [3]: > 50.1 µM

Compound: CCC1(CC)Cc2ccccc2-c2nc(NCCCO)[nH]c(=O)c21
- IC50 [1]: 21.9 µM and 23.7 µM
- IC50 (ClpP1P2): > 100 µM

Compound: O=c1[nH]c(NCCCO)nc2c1C1(CCCC1)Cc1ccccc1-2
- IC50 [1]: 24.5 µM and 29.7 µM
- IC50 (ClpP1P2): > 100 µM

Compound: Cc1nc2c(Nc3cccc(C#N)c3)nc(N)nc2n1C
- IC50 [1]: > 100 µM
- IC50 [2]: 4.14 µM
- IC50 [3]: 3.75 µM

Compound: O=C(O)c1cn(-c2ccccn2)c(=O)c2ccccc12
- IC50 [1]: 8.93 µM and 20.5 µM
- IC50 (ClpP1P2): > 100 µM

Compound: CN(C)S(=O)(=O)c1ccc(-c2nc(C#N)c(NC3CC3)o2)o1
- IC50 [1]: 12.2 µM and 13.6 µM
- IC50 (ClpP1P2): > 100 µM

Compound: CNC(=O)c1cc2c(nc1NCC(C)C)CCN(S(C)(=O)=O)CC2
- IC50 [1]: > 100 µM and 16.4 µM
- IC50 (ClpP1P2): > 100 µM

Compound: CNC(=O)c1cc2c(nc1NC(C)C)CCNCC2
- IC50 [1]: 60.3 µM and 25 µM
- IC50 (ClpP1P2): > 100 µM

Compound: CNC(=O)c1cc2c(nc1NCC1CC1)CCNCC2
- IC50 [1]: 72 µM and 24.7 µM
- IC50 (ClpP1P2): > 100 µM

Compound: CNC(=O)N1CCc2cc(C(=O)NCC3CC3)c(NC(C)C)nc2CC1
- IC50 [1]: 10.7 µM and 18.7 µM
- IC50 (ClpP1P2): > 100 µM

Compound: COc1ccccc1-c1ccnc2nc(N3CCCCC3)[nH]c(=O)c12
- IC50 [1]: 10.9 µM and 13.9 µM
- IC50 (ClpP1P2): > 100 µM

Compound: O=C(c1ccc(COc2ccc(Cl)cc2)o1)N1N=CCC1(O)C(F)(F)F (stereo not drawn)
- pIC50 [4]: 5.524
- IC50 [4]: 3.1 µM
- IC50 [1]: 17.3 µM and 24.2 µM

Compound: CCCn1c(N2CCCC2)nc2c(C)nn(C)c2c1=O
- IC50 [4]: > 50.1 µM
- IC50 [1]: > 100 µM

Compound: CCOc1cc(C(=O)n2cc(C)cn2)cc(OCC)c1OCC
- IC50 [1]: 19.9 µM and 11.2 µM
- IC50 [2]: > 50.1 µM
- IC50 [3]: 29.7 µM

Compound: Cc1nn(C)cc1C1=NS(=O)(=O)N(C)C(C(=O)Nc2ccc(Br)cc2)=C1
- pIC50 (Plasmodium falciparum): 6.699
- IC50 (Plasmodium falciparum; Plasmodium falciparum): 0.238 µM
- IC50 [1]: 28.6 µM and 36.6 µM

Compound: Cn1nccc1CCC(=O)N1CCCC(c2cnccn2)C1 (stereo not drawn)
- IC50 (Tryptophan--tRNA ligase): > 195 µM
- IC50 [1]: > 100 µM

Compound: Cc1cc(C)c2cc(CNC(C)C)c3nn(C)c(=O)n3c2c1
- IC50 [1]: 17 µM and 18.4 µM
- IC50 (ClpP1P2): > 100 µM

Compound: CC(=O)N1CCC(c2cc(C(F)(F)F)nc3nccn23)CC1
- IC50 [1]: 16.7 µM and 13.5 µM
- IC50 (ClpP1P2): > 100 µM

Compound: COC(=O)CNC(=O)c1nc(-c2ccccc2OC)c2cnccn12
- IC50 [1]: 79.6 µM and > 100 µM
- IC50 (ClpP1P2): > 100 µM

Compound: CS(=O)(=O)c1ccc(-c2nc(C(=O)N3CCCC3)n3ccccc23)cc1
- IC50 [1]: 12.3 µM and 12.9 µM
- IC50 (ClpP1P2): > 100 µM

Compound: Cc1csc(CNc2cnc3c(c2)c(C)nn3C)n1
- IC50 [1]: 7.6 µM and 15.2 µM
- IC50 (ClpP1P2): > 100 µM

Compound: CN1CCC(NC(=O)c2cc(F)cc(Cl)c2O)C1=O (stereo not drawn)
- IC50 [1]: 40.1 µM and 21.4 µM
- IC50 (ClpP1P2): > 100 µM

Compound: Cc1nc(C(=O)N(C)CC(F)(F)C(F)(F)F)c2ccccn12
- IC50 [1]: > 57.5 µM and 27.2 µM
- IC50 (ClpP1P2): > 100 µM

Compound: CCOCCOCc1cccc(CNc2cncc(-n3cccn3)n2)c1
- IC50 [1]: 29.9 µM and 19 µM
- IC50 (ClpP1P2): > 100 µM

Compound: O=C(c1ccccc1)C1CCN(c2cncc(-n3cccn3)n2)CC1
- IC50 (Leishmania donovani): > 50.1 µM
- IC50 [1]: 29 µM and 33.8 µM

Compound: CCOC(=O)N1CCN(C(=O)C2CC(=O)N(c3ccccc3Br)C2)CC1 (stereo not drawn)
- IC50 [1]: 19.4 µM and 22.4 µM
- IC50 [2]: 9.89 µM
- IC50 [3]: 39.8 µM

Compound: CC(CN1CCCC1=O)NC(=O)c1ccc(-c2ccco2)[nH]c1=O (stereo not drawn)
- IC50 [1]: 7.52 µM and 13.7 µM
- IC50 (ClpP1P2): > 100 µM

Compound: CN(C)C(=O)c1cnc(-c2ccc3c(c2)OCO3)s1
- IC50 [1]: 11.1 µM and 8.56 µM
- IC50 (ClpP1P2): > 100 µM

Compound: CC(C)N(CC(N)=O)C(=O)c1cnc(-c2ccc3c(c2)OCO3)s1
- IC50 [1]: 11.1 µM and 12.4 µM
- IC50 (ClpP1P2): > 100 µM

Compound: N#Cc1nccnc1N1CCC(CSc2ccccc2)C1 (stereo not drawn)
- IC50 [1]: 18.6 µM and 20.2 µM
- IC50 [2]: 4.96 µM
- IC50 [3]: 18.9 µM

Compound: CNS(=O)(=O)c1csc(C(=O)N(C)Cc2ccccc2C)c1
- IC50 (Tryptophan--tRNA ligase): > 195 µM
- IC50 [1]: > 100 µM

Compound: Cn1cnc(-c2nc(C(=O)NC3CC3)c3ccccn23)c1
- IC50 [1]: 73.2 µM and 16.1 µM
- IC50 (ClpP1P2): > 100 µM

Compound: Cn1cnc(-c2nc(C(=O)NCCN3CCOCC3)c3ccccn23)c1
- IC50 [1]: 15.6 µM and 34.1 µM
- IC50 (ClpP1P2): > 100 µM

Compound: CC(C)(C)Nc1nc(-c2cccnc2)c(-c2ccnc(NCCO)n2)s1
- IC50 [4]: 5.53 µM
- IC50 [1]: > 100 µM

Compound: COCc1noc(-c2ccc(N(C)Cc3ccc(C)o3)nc2)n1
- IC50 [1]: > 100 µM
- IC50 [2]: 18.1 µM

Compound: CCCOc1ccc(Cl)cc1CNc1ncnc2oc(C)nc12
- IC50 [4]: 12.6 µM
- IC50 [1]: 12.3 µM and 19.8 µM
- IC50 [2]: > 50.1 µM
- IC50 [3]: > 50.1 µM

Compound: CS(=O)(=O)c1ccc(-c2cc(C3CC3)c(C#N)c(N)n2)cc1
- IC50 [1]: 10.4 µM and 11.5 µM
- IC50 (ClpP1P2): > 100 µM
